Legend:
[1] = compound: CC(=O)Nc1cccc(-n2c(=O)n(C3CC3)c(=O)c3c(Nc4ccc(I)cc4F)n(C)c(=O)c(C)c32)c1
Doxorubicin = compound: COc1cccc2c1C(=O)c1c(O)c3c(c(O)c1C2=O)C[C@@](O)(C(=O)CO)C[C@@H]3O[C@H]1C[C@H](N)[C@H](O)[C@H](C)O1 [Doxorubicin]
Ceritinib/LDK378 = compound: Cc1cc(Nc2ncc(Cl)c(Nc3ccccc3S(=O)(=O)C(C)C)n2)c(OC(C)C)cc1C1CCNCC1 [Ceritinib/LDK378]
Volasertib/BI6727 = compound: CC[C@@H]1C(=O)N(C)c2cnc(Nc3ccc(C(=O)N[C@H]4CC[C@H](N5CCN(CC6CC6)CC5)CC4)cc3OC)nc2N1C(C)C [Volasertib/BI6727]
THZ531 [2] = compound: T1, CN(C)C/C=C/C(=O)Nc1ccc(C(=O)N2CCC[C@@H](Nc3ncc(Cl)c(-c4c[nH]c5ccccc45)n3)C2)cc1 [THZ531]
BSJ-03-123 [3] = compound: T2, CC(=O)c1c(C)c2cnc(Nc3ccc(N4CCN(CCOCCOCCOCCNC(=O)COc5cccc6c5C(=O)N(C5CCC(=O)NC5=O)C6=O)CC4)cn3)nc2n(C2CCCC2)c1=O [BSJ-03-123]
Neratinib/HKI272 [4] = compound: T3, CCOc1cc2ncc(C#N)c(Nc3ccc(OCc4ccccn4)c(Cl)c3)c2cc1NC(=O)/C=C/CN(C)C [Neratinib/HKI272]
[5] = compound: CO[C@@H](C)Cn1c(=O)n(C)c2cnc3ccc(-c4cncc(C(C)(C)O)c4)cc3c21
Vorinostat = compound: O=C(CCCCCCC(=O)Nc1ccccc1)NO [Vorinostat]
AZD2014 = compound: CNC(=O)c1cccc(-c2ccc3c(N4CCOC[C@@H]4C)nc(N4CCOC[C@@H]4C)nc3n2)c1 [AZD2014]
[6] = compound: CC(=O)c1c(C)c2cnc(Nc3ccc(N4CCNCC4)cn3)nc2n(C2CCCC2)c1=O
Taselisib/GDC0032 = compound: Cc1nc(-c2cn3c(n2)-c2ccc(-c4cnn(C(C)(C)C(N)=O)c4)cc2OCC3)n(C(C)C)n1 [Taselisib/GDC0032]
INK128/MLN0128 = compound: CC(C)n1nc(-c2ccc3oc(N)nc3c2)c2c(N)ncnc21 [INK128/MLN0128]
BSJ-01-175 = compound: CN(C)C/C=C/C(=O)Nc1ccc(O[C@@H]2CCC[C@@H](Nc3ncc(Cl)c(-c4c[nH]c5ccccc45)n3)C2)cc1 [BSJ-01-175]
Rucaparib = compound: CNCc1ccc(-c2[nH]c3cc(F)cc4c3c2CCNC4=O)cc1 [Rucaparib]
Dasatinib = compound: Cc1nc(Nc2ncc(C(=O)Nc3c(C)cccc3Cl)s2)cc(N2CCN(CCO)CC2)n1 [Dasatinib]
THZ1 = compound: CN(C)C/C=C/C(=O)Nc1ccc(C(=O)Nc2cccc(Nc3ncc(Cl)c(-c4c[nH]c5ccccc45)n3)c2)cc1 [THZ1]; experiment: increase in dead-cell fraction, 72 h; higher = more death;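 note: breast cancer cell lines in 384-well plates, stained with Hoechst plus LIVE/DEAD far red dye and imaged, cells above an LDR intensity threshold counted dead, Hoechst-negative corpses included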
THZ531 [7] = compound: T1, THZ531; experiment: as above
BSJ-03-123 [8] = compound: T2, BSJ-03-123; experiment: as above
Neratinib/HKI272 [9] = compound: T3, Neratinib/HKI272; experiment: as above
YKL-5-124 = compound: C=CC(=O)Nc1ccc(C(=O)Nc2[nH]nc3c2CN(C(=O)N[C@H](CN(C)C)c2ccccc2)C3(C)C)cc1 [YKL-5-124]; experiment: as above
[10] = compound: CCc1cnn2c(NCc3ccc[n+]([O-])c3)cc(N3CCCC[C@H]3CCO)nc12; experiment: as above
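Throughout, for GR50, 72 h: breast cancer and non-malignant breast epithelial cell lines, Deep Dye Drop or Dye Drop imaging, nine half-log doses, GR normalized to time-zero plates and DMSO-only controls.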

T47D
GR50, 72 h [1]: > 1 µM
GR50, 72 h (Doxorubicin): 0.00189 µM
GR50, 72 h (Ceritinib/LDK378): 1.56 µM
GR50, 72 h (Volasertib/BI6727): 0.0315 µM
GR50, 72 h (THZ531 [2]): 0.114 µM
GR50, 72 h (BSJ-03-123 [3]): 0.00165 µM
GR50, 72 h (Neratinib/HKI272 [4]): 0.423 µM
GR50, 72 h [5]: < 0.001 µM
GR50, 72 h (Vorinostat): 1.83 µM
GR50, 72 h (AZD2014): < 0.001 µM
GR50, 72 h [6]: 0.0275 µM
GR50, 72 h (Taselisib/GDC0032): 0.00179 µM
GR50, 72 h (INK128/MLN0128): 0.00526 µM
GR50, 72 h (BSJ-01-175): 0.189 µM
GR50, 72 h (Rucaparib): > 10 µM
GR50, 72 h (Dasatinib): > 10 µM
increase in dead-cell fraction (THZ1; 0.0001 µM): -0.0018
increase in dead-cell fraction (THZ1; 0.0003162 µM): 0.0029
increase in dead-cell fraction (THZ1; 0.001 µM): 0.0039
increase in dead-cell fraction (THZ1; 0.003162 µM): 0.005
increase in dead-cell fraction (THZ1; 0.01 µM): -0.0043
increase in dead-cell fraction (THZ1; 0.03162 µM): 0.0328
increase in dead-cell fraction (THZ1; 0.1 µM): 0.0197
increase in dead-cell fraction (THZ1; 0.3162 µM): 0.0299
increase in dead-cell fraction (THZ1; 1 µM): 0.0416
increase in dead-cell fraction (THZ531 [7]; 0.0001 µM): -0.0029
increase in dead-cell fraction (THZ531 [7]; 0.0003162 µM): 0.0085
increase in dead-cell fraction (THZ531 [7]; 0.001 µM): -0.0033
increase in dead-cell fraction (THZ531 [7]; 0.003162 µM): 0.0028
increase in dead-cell fraction (THZ531 [7]; 0.01 µM): -0.0045
increase in dead-cell fraction (THZ531 [7]; 0.03162 µM): 0.0014
increase in dead-cell fraction (THZ531 [7]; 0.1 µM): 0.01
increase in dead-cell fraction (THZ531 [7]; 0.3162 µM): 0.035
increase in dead-cell fraction (THZ531 [7]; 1 µM): 0.0357
increase in dead-cell fraction (BSJ-03-123 [8]; 0.001 µM): 0.0097
increase in dead-cell fraction (BSJ-03-123 [8]; 0.003162 µM): 0.0074
increase in dead-cell fraction (BSJ-03-123 [8]; 0.01 µM): 0.0101
increase in dead-cell fraction (BSJ-03-123 [8]; 0.03162 µM): 0.0084
increase in dead-cell fraction (BSJ-03-123 [8]; 0.1 µM): 0.019
increase in dead-cell fraction (BSJ-03-123 [8]; 0.3162 µM): 0.021
increase in dead-cell fraction (BSJ-03-123 [8]; 1 µM): 0.0319
increase in dead-cell fraction (BSJ-03-123 [8]; 3.162 µM): 0.022
increase in dead-cell fraction (BSJ-03-123 [8]; 10 µM): 0.0281
increase in dead-cell fraction (Neratinib/HKI272 [9]; 0.0003162 µM): -0.0033
increase in dead-cell fraction (Neratinib/HKI272 [9]; 0.001 µM): 0.0054
increase in dead-cell fraction (Neratinib/HKI272 [9]; 0.003162 µM): 0.0022
increase in dead-cell fraction (Neratinib/HKI272 [9]; 0.01 µM): 0.0045
increase in dead-cell fraction (Neratinib/HKI272 [9]; 0.03162 µM): 0.0043
increase in dead-cell fraction (Neratinib/HKI272 [9]; 0.1 µM): 0.0001
increase in dead-cell fraction (Neratinib/HKI272 [9]; 0.3162 µM): 0.0101
increase in dead-cell fraction (Neratinib/HKI272 [9]; 1 µM): 0.0084
increase in dead-cell fraction (Neratinib/HKI272 [9]; 3.162 µM): 0.0225
increase in dead-cell fraction (YKL-5-124; 0.001 µM): 0.0113
increase in dead-cell fraction (YKL-5-124; 0.003162 µM): 0.0129
increase in dead-cell fraction (YKL-5-124; 0.01 µM): 0.0177
increase in dead-cell fraction (YKL-5-124; 0.03162 µM): 0.0322
increase in dead-cell fraction (YKL-5-124; 0.1 µM): 0.0269
increase in dead-cell fraction (YKL-5-124; 0.3162 µM): 0.0156
increase in dead-cell fraction (YKL-5-124; 1 µM): 0.0308
increase in dead-cell fraction (YKL-5-124; 3.162 µM): 0.0206
increase in dead-cell fraction (YKL-5-124; 10 µM): 0.0574
increase in dead-cell fraction ([10]; 0.0001 µM): -0.0001
increase in dead-cell fraction ([10]; 0.0003162 µM): 0.0027
increase in dead-cell fraction ([10]; 0.001 µM): -0.0018
increase in dead-cell fraction ([10]; 0.003162 µM): -0.0021
increase in dead-cell fraction ([10]; 0.01 µM): 0.0073
increase in dead-cell fraction ([10]; 0.03162 µM): 0.0576
increase in dead-cell fraction ([10]; 0.1 µM): 0.106
increase in dead-cell fraction ([10]; 0.3162 µM): 0.138
increase in dead-cell fraction ([10]; 1 µM): 0.127

BT549
GR50, 72 h [1]: > 1 µM
GR50, 72 h (Doxorubicin): 0.00648 µM
GR50, 72 h (Ceritinib/LDK378): 2.96 µM
GR50, 72 h (Volasertib/BI6727): 0.00884 µM
GR50, 72 h (THZ531 [2]): 0.302 µM
GR50, 72 h (BSJ-03-123 [3]): 6.36 µM
GR50, 72 h (Neratinib/HKI272 [4]): 1.99 µM
GR50, 72 h [5]: 0.00122 µM
GR50, 72 h (Vorinostat): 2.37 µM
GR50, 72 h (AZD2014): 0.157 µM
GR50, 72 h [6]: > 3.16 µM
GR50, 72 h (Taselisib/GDC0032): 2.21 µM
GR50, 72 h (INK128/MLN0128): 0.0166 µM
GR50, 72 h (BSJ-01-175): 0.737 µM
GR50, 72 h (Rucaparib): > 10 µM
GR50, 72 h (Dasatinib): 0.592 µM
increase in dead-cell fraction (THZ1; 0.0001 µM): -0.0033
increase in dead-cell fraction (THZ1; 0.0003162 µM): -0.0013
increase in dead-cell fraction (THZ1; 0.001 µM): -0.0005
increase in dead-cell fraction (THZ1; 0.003162 µM): -0.0025
increase in dead-cell fraction (THZ1; 0.01 µM): 0.0024
increase in dead-cell fraction (THZ1; 0.03162 µM): 0.0096
increase in dead-cell fraction (THZ1; 0.1 µM): 0.112
increase in dead-cell fraction (THZ1; 0.3162 µM): 0.179
increase in dead-cell fraction (THZ1; 1 µM): 0.27
increase in dead-cell fraction (THZ531 [7]; 0.0001 µM): 0
increase in dead-cell fraction (THZ531 [7]; 0.0003162 µM): 0
increase in dead-cell fraction (THZ531 [7]; 0.001 µM): 0.0005
increase in dead-cell fraction (THZ531 [7]; 0.003162 µM): 0.0003
increase in dead-cell fraction (THZ531 [7]; 0.01 µM): -0.0022
increase in dead-cell fraction (THZ531 [7]; 0.03162 µM): 0.0026
increase in dead-cell fraction (THZ531 [7]; 0.1 µM): 0.0062
increase in dead-cell fraction (THZ531 [7]; 0.3162 µM): 0.0485
increase in dead-cell fraction (THZ531 [7]; 1 µM): 0.365
increase in dead-cell fraction (BSJ-03-123 [8]; 0.001 µM): -0.0011
increase in dead-cell fraction (BSJ-03-123 [8]; 0.003162 µM): -0.0008
increase in dead-cell fraction (BSJ-03-123 [8]; 0.01 µM): -0.0008
increase in dead-cell fraction (BSJ-03-123 [8]; 0.03162 µM): 0.0023
increase in dead-cell fraction (BSJ-03-123 [8]; 0.1 µM): 0.0017
increase in dead-cell fraction (BSJ-03-123 [8]; 0.3162 µM): -0.0023
increase in dead-cell fraction (BSJ-03-123 [8]; 1 µM): 0.0009
increase in dead-cell fraction (BSJ-03-123 [8]; 3.162 µM): 0.0085
increase in dead-cell fraction (BSJ-03-123 [8]; 10 µM): 0.184
increase in dead-cell fraction (Neratinib/HKI272 [9]; 0.0003162 µM): 0.0052
increase in dead-cell fraction (Neratinib/HKI272 [9]; 0.001 µM): 0.0037
increase in dead-cell fraction (Neratinib/HKI272 [9]; 0.003162 µM): 0.0077
increase in dead-cell fraction (Neratinib/HKI272 [9]; 0.01 µM): -0.001
increase in dead-cell fraction (Neratinib/HKI272 [9]; 0.03162 µM): 0.0074
increase in dead-cell fraction (Neratinib/HKI272 [9]; 0.1 µM): -0.0081
increase in dead-cell fraction (Neratinib/HKI272 [9]; 0.3162 µM): 0.0066
increase in dead-cell fraction (Neratinib/HKI272 [9]; 1 µM): 0.0035
increase in dead-cell fraction (Neratinib/HKI272 [9]; 3.162 µM): 0.102
increase in dead-cell fraction (YKL-5-124; 0.001 µM): 0.0189
increase in dead-cell fraction (YKL-5-124; 0.003162 µM): 0.0362
increase in dead-cell fraction (YKL-5-124; 0.01 µM): 0.097
increase in dead-cell fraction (YKL-5-124; 0.03162 µM): 0.158
increase in dead-cell fraction (YKL-5-124; 0.1 µM): 0.169
increase in dead-cell fraction (YKL-5-124; 0.3162 µM): 0.169
increase in dead-cell fraction (YKL-5-124; 1 µM): 0.196
increase in dead-cell fraction (YKL-5-124; 3.162 µM): 0.228
increase in dead-cell fraction (YKL-5-124; 10 µM): 0.614
increase in dead-cell fraction ([10]; 0.0001 µM): -0.0017
increase in dead-cell fraction ([10]; 0.0003162 µM): -0.0119
increase in dead-cell fraction ([10]; 0.001 µM): 0.0095
increase in dead-cell fraction ([10]; 0.003162 µM): 0.0067
increase in dead-cell fraction ([10]; 0.01 µM): 0.0717
increase in dead-cell fraction ([10]; 0.03162 µM): 0.309
increase in dead-cell fraction ([10]; 0.1 µM): 0.338
increase in dead-cell fraction ([10]; 0.3162 µM): 0.295
increase in dead-cell fraction ([10]; 1 µM): 0.346
